Assay results as given in patent US20130287805A1, “C18ORF54 PEPTIDES AND VACCINES INCLUDING THE SAME” (priority 2010, published 2013).
Entries after “also recorded” stand apart in the source; their conditions may differ.

Assays:
peptide-pulsed T2 cells [1] = assay: IFN-gamma ELISPOT assay of CTLs induced in vitro with peptide-pulsed DCs; type: cell-based, human; settings: CTLs from HLA-A*0201 positive donor, day 21, peptide-pulsed T2 versus no peptide control
Text: Monocyte-derived dendritic cells (DCs) were used as antigen-presenting cells to induce cytotoxic T lymphocyte (CTL) responses against peptides presented on human leukocyte antigen (HLA). DCs were generated in vitro as described elsewhere (Nakahara S et al., Cancer Res 2003 Jul. 15, 63(14): 4112-8). Specifically, peripheral blood mononuclear cells isolated from a normal volunteer (HLA-A*0201 positive) by Ficoll-Plaque (Pharmacia) solution were separated by adherence to a plastic tissue culture dish (Becton Dickinson) so as to enrich them as the monocyte fraction. The monocyte-enriched population was cultured in the presence of 1000 U/ml of granulocyte-macrophage colony-stimulating factor (R&D System) and 1000 U/ml of interleukin (IL)-4 (R&D System) in AIM-V Medium (Invitrogen) containing 2% heat-inactivated autologous serum (AS). After 7 days of culture, the cytokine-induced DCs were pulsed with 20 micro-g/ml of each of the synthesized peptides in the presence of 3 micro-g/ml of beta 2-microglobulin for 3 hr at 37 degrees C. in AIM-V Medium. The generated cells appeared to express DC-associated molecules, such as CD80, CD83, CD86 and HLA class II, on their cell surfaces (data not shown). These peptide-pulsed DCs were then inactivated by X-irradiated (20 Gy) and mixed at a 1:20 ratio with autologous CD8+ T cells, obtained by positive selection with CD8 Positive Isolation Kit (Dynal). These cultures were set up in 48-well plates (Corning); each well contained 1.5×10^4 peptide-pulsed DCs, 3×10^5 CD8+ T cells and 10 ng/ml of IL-7 (R&D System) in 0.5 ml of AIM-V/2% AS medium. Three days later, these cultures were supplemented with IL-2 (CHIRON) to a final concentration of 20 IU/ml. On day 7 and 14, the T cells were further stimulated with the autologous peptide-pulsed DCs. The DCs were prepared each time by the same way described above. CTL was tested against peptide-pulsed T2 cells after the 3rd round of peptide stimulation on day 21 (Tanaka H et al., Br J Cancer Jan. 5, 2001, 84(1): 94-9; Umano Y et al., Br J Cancer Apr. 20, 2001, 84(8): 1052-7; Uchida N et al., Clin Cancer Res Dec. 15, 2004, 10(24): 8577-86; Suda T et al., Cancer Sci May 2006, 97(5): 411-9; Watanabe T et al., Cancer Sci August 2005, 96(8): 498-506).
(§1) Specifically, peptide-pulsed T2 (1×10^4/well) was prepared as stimulator cells. Cultured cells in 48 wells were used as responder cells. IFN-gamma ELISPOT assay and IFN-gamma ELISA assay were performed under manufacture procedure.

peptide-pulsed T2 cells [2] = assay: IFN-gamma ELISA assay of expanded CTL lines; type: cell-based, human; settings: target cells pulsed with peptide versus without peptide pulse
Procedure: CTLs were expanded in culture using the method similar to the one described by Riddell et al. (Walter E A et al., N Engl J Med Oct. 19, 1995, 333(16): 1038-44; Riddell S R et al., Nat Med February 1996, 2(2): 216-23). A total of 5×10^4 CTLs were suspended in 25 ml of AIM-V/5% AS medium with 2 kinds of human B-lymphoblastoid cell lines, inactivated by Mitomycin C, in the presence of 40 ng/ml of anti-CD3 monoclonal antibody (Pharmingen). One day after initiating the cultures, 120 IU/ml of IL-2 were added to the cultures. The cultures were fed with fresh AIM-V/5% AS medium containing 30 IU/ml of IL-2 on days 5, 8 and 11 (Tanaka H et al., Br J Cancer Jan. 5, 2001, 84(1): 94-9; Umano Y et al., Br J Cancer Apr. 20, 2001, 84(8): 1052-7; Uchida N et al., Clin Cancer Res Dec. 15, 2004, 10(24): 8577-86; Suda T et al., Cancer Sci May 2006, 97(5): 411-9; Watanabe T et al., Cancer Sci August 2005, 96(8): 498-506).
as §1

peptide-pulsed T2 cells [3] = assay: IFN-gamma ELISA assay of CTL clones established by limiting dilution; type: cell-based, human; settings: target cells pulsed with peptide versus without peptide pulse
Procedure: The dilutions were made to have 0.3, 1, and 3 CTLs/well in 96 round-bottomed micro titer plate (Nalge Nunc International). CTLs were cultured with 1×10^4 cells/well of 2 kinds of human B-lymphoblastoid cell lines, 30 ng/ml of anti-CD3 antibody, and 125 U/ml of IL-2 in a total of […] of AIM-V Medium containing 5% AS. 50 micro-l/well of IL-2 were added to the medium 10 days later so to reach a final concentration of 125 U/ml IL-2. CTL activity was tested on the 14th day, and CTL clones were expanded using the same method as described above (Uchida N et al., Clin Cancer Res Dec. 15, 2004, 10(24): 8577-86; Suda T et al., Cancer Sci May 2006, 97(5): 411-9; Watanabe T et al., Cancer Sci August 2005, 96(8): 498-506).
as §1

[4] = tested on: COS7 cells transfected with C18orf54 and HLA-A*0201; assay: Specific CTL activity against target cells expressing C18orf54 and HLA-A*0201; type: cell-based, African green monkey; settings: CTL clone
Text: The cDNA encoding an open reading frame of target genes or HLA-A*0201 was amplified by PCR. The PCR-amplified product was cloned into the expression vector. The plasmids were transfected into COS7, which is the target genes and HLA-A*0201-null cell line, using lipofectamine 2000 (Invitrogen) according to the manufacturer's recommended procedures. After 2 days from transfection, the transfected cells were harvested with versene (Invitrogen) and used as the target cells (5×10^4 cells/well) for CTL activity assay.
The established CTL lines and clones raised against each peptide were examined for the ability to recognize target cells that express C18orf54 and HLA-A*0201 molecule. […] COS7 cells transfected with either full length of C18orf54 or HLA-A*0201 were prepared as the controls.

Sequence | Peptide specific CTL activity: IFN-gamma production (ELISPOT) (peptide-pulsed T2 cells [1]) | IFN-gamma production of CTL lines (ELISA) (peptide-pulsed T2 cells [2]) | also measured
KLYRSASQA [SEQ ID NO: 14] | potent IFN-gamma production | – | –
QLKESMIPI [SEQ ID NO: 10] | potent IFN-gamma production | – | –
QMLFNLQAV [SEQ ID NO: 2] | potent IFN-gamma production | potent IFN-gamma production | –
SIPDFKYPV [SEQ ID NO: 4] | potent IFN-gamma production | potent IFN-gamma production | IFN-gamma production of CTL clones (ELISA) (peptide-pulsed T2 cells [3]; listed as C18orf54-A02-9-255): potent IFN-gamma production
SLQKALHHL [SEQ ID NO: 5] | potent IFN-gamma production | potent IFN-gamma production | IFN-gamma production of CTL clones (ELISA) (peptide-pulsed T2 cells [3]; listed as C18orf54-A02-9-507): potent IFN-gamma production; Specific CTL activity against COS7 cells expressing both C18orf54 and HLA-A*0201 ([4]; COS7 transfected with both full length C18orf54 and HLA-A*0201, listed as C18orf54-A02-9-507): potent CTL activity; also recorded: specific CTL activity; Specific CTL activity against control COS7 cells ([4]; COS7 transfected with either C18orf54 or HLA-A*0201 alone): no significant specific CTL activity
SLSDDKELV [SEQ ID NO: 3] | potent IFN-gamma production | – | –
SMIPITRSL [SEQ ID NO: 1] | – | – | Peptide specific CTL activity: IFN-gamma production (ELISPOT) (peptide-pulsed T2 cells [1]; listed as C18orf54-A02-9-500): not observed
TSIPDFKYPV [SEQ ID NO: 32] | potent IFN-gamma production | – | –
VTFKSPVPV [SEQ ID NO: 9] | potent IFN-gamma production | – | –
WLTSQKSDL [SEQ ID NO: 20] | potent IFN-gamma production | – | –
